According to the NIST ThermoML archive (doi:10.1007/s10765-010-0737-5):

Test: xn = mol fraction of the nth substance listed
Conditions: Liquid; for viscosity: 101 kPa, Capillary tube (Ostwald / Ubbelohde) method; for mass density: 101.3 kPa

CC(C)(C)Cl [2-chloro-2-methylpropane] + CC(C)OC(C)C
Conditions	mass density [kg/m3]	viscosity [mPa·s]
283.15 K, x1 = 0.049	738.51	0.3693
283.15 K, x1 = 0.0996	743.477	0.3746
283.15 K, x1 = 0.1991	753.625	0.386
283.15 K, x1 = 0.3212	766.738	0.4025
283.15 K, x1 = 0.4189	777.752	0.4183
283.15 K, x1 = 0.5148	789.053	0.4365
283.15 K, x1 = 0.6213	802.211	0.4606
283.15 K, x1 = 0.7152	814.386	0.4862
283.15 K, x1 = 0.8138	827.842	0.5182
283.15 K, x1 = 0.9079	841.347	0.555
283.15 K, x1 = 0.9552	848.401	0.5761
283.15 K, x1 = 1	855.249	0.598
288.15 K, x1 = 0.049	733.338	0.3531
288.15 K, x1 = 0.0996	738.271	0.358
288.15 K, x1 = 0.1991	748.35	0.3683
288.15 K, x1 = 0.3212	761.373	0.3827
288.15 K, x1 = 0.4189	772.308	0.3963
288.15 K, x1 = 0.5148	783.527	0.412
288.15 K, x1 = 0.6213	796.59	0.4328
288.15 K, x1 = 0.7152	808.683	0.4549
288.15 K, x1 = 0.8138	822.038	0.4829
288.15 K, x1 = 0.9079	835.446	0.5154
288.15 K, x1 = 0.9552	842.442	0.5342
288.15 K, x1 = 1	849.243	0.5538
293.15 K, x1 = 0.049	728.121	0.3381
293.15 K, x1 = 0.0996	733.024	0.3425
293.15 K, x1 = 0.1991	743.024	0.3515
293.15 K, x1 = 0.3212	755.959	0.3641
293.15 K, x1 = 0.4189	766.815	0.376
293.15 K, x1 = 0.5148	777.959	0.3894
293.15 K, x1 = 0.6213	790.929	0.4075
293.15 K, x1 = 0.7152	802.935	0.4268
293.15 K, x1 = 0.8138	816.186	0.4512
293.15 K, x1 = 0.9079	829.489	0.4796
293.15 K, x1 = 0.9552	836.437	0.4962
293.15 K, x1 = 1	843.191	0.5135
298.15 K, x1 = 0.049	722.867	0.3217
298.15 K, x1 = 0.0996	727.738	0.3258
298.15 K, x1 = 0.1991	737.666	0.3342
298.15 K, x1 = 0.3212	750.506	0.3458
298.15 K, x1 = 0.4189	761.288	0.3564
298.15 K, x1 = 0.5148	772.351	0.3686
298.15 K, x1 = 0.6213	785.231	0.3845
298.15 K, x1 = 0.7152	797.145	0.4014
298.15 K, x1 = 0.8138	810.301	0.4229
298.15 K, x1 = 0.9079	823.502	0.4476
298.15 K, x1 = 0.9552	830.397	0.4619
298.15 K, x1 = 1	837.096	0.4768
303.15 K, x1 = 0.049	717.578	0.304
303.15 K, x1 = 0.0996	722.412	0.308
303.15 K, x1 = 0.1991	732.264	0.3164
303.15 K, x1 = 0.3212	745.013	0.3277
303.15 K, x1 = 0.4189	755.716	0.3379
303.15 K, x1 = 0.5148	766.702	0.3492
303.15 K, x1 = 0.6213	779.484	0.3639
303.15 K, x1 = 0.7152	791.308	0.3791
303.15 K, x1 = 0.8138	804.365	0.3979
303.15 K, x1 = 0.9079	817.467	0.4191
303.15 K, x1 = 0.9552	824.312	0.4313
303.15 K, x1 = 1	830.958	0.4438
308.15 K, x1 = 0.049	712.24	0.2892
308.15 K, x1 = 0.0996	717.039	0.2928
308.15 K, x1 = 0.1991	726.821	0.3006
308.15 K, x1 = 0.3212	739.479	0.3115
308.15 K, x1 = 0.4189	750.102	0.3216
308.15 K, x1 = 0.5148	761.005	0.3327
308.15 K, x1 = 0.6213	773.688	0.3468
308.15 K, x1 = 0.7152	785.436	0.3613
308.15 K, x1 = 0.8138	798.392	0.3787
308.15 K, x1 = 0.9079	811.393	0.398
308.15 K, x1 = 0.9552	818.179	0.4087
308.15 K, x1 = 1	824.772	0.4196
313.15 K, x1 = 0.049	706.856	0.2751
313.15 K, x1 = 0.0996	711.61	0.2783
313.15 K, x1 = 0.1991	721.328	0.2856
313.15 K, x1 = 0.3212	733.893	0.2963
313.15 K, x1 = 0.4189	744.44	0.3061
313.15 K, x1 = 0.5148	755.257	0.3171
313.15 K, x1 = 0.6213	767.848	0.3306
313.15 K, x1 = 0.7152	779.502	0.3436
313.15 K, x1 = 0.8138	792.362	0.3586
313.15 K, x1 = 0.9079	805.256	0.3741
313.15 K, x1 = 0.9552	811.996	0.3824
313.15 K, x1 = 1	818.536	0.3904
